What all share (format): binding
One assay concerns nucleotide-free KRas. Briefly: Stopped-flow competition with mantdGDP (association kinetics). The settings on record: for kon: 25 °C, 1 µM KRas, 2 µM mantdGDP, 1, 2, 6 µM competing nucleotide, global fit; for koff: calculated kinetic parameter. On the procedure: The association kinetics of the nucleotide analogues were analyzed with a SX-20 stopped-flow instrument (Applied Photophysics) at 25 °C in a buffer consisting of 25 mM HEPES (pH 7.5), 100 mM NaCl, 1 mM MgCl2, and 0.5 mM TCEP. 1 µM of nucleotide-free KRas ([Müller et al., 2017]) in one syringe was mixed rapidly with 2 µM mantdGDP in the other. In subsequent experiments, the second syringe contained competing nucleotides (1, 2, and 6 µM) in addition to 2 µM mantdGDP. The resulting progress curves were globally fit using KinTek Explorer to obtain the corresponding association rate constants as previously described (Table 1—source data 1, Table 1—source data 2 [Johnson et al., 2009]).

Assay [1] deals with T1, KRasG13C1-169 (Cys-light).
T1 construct: KRasWT1-169 and KRasG13C1-169 Cys-light (C51S C80L C118S) were expressed in BL21 (DE3) E. coli; hexahistidine (TEV site) (N, cleaved yes); made in house; host or cells: E. coli BL21 (DE3)
Briefly: Covalent modification of protein controlled by ESI-MS. The protocol: After incubation at room temperature for the appropriate time, the modification of the protein was controlled by ESI-MS. For covalent modification of full-length KRasG13C, a nucleotide exchange with a 10-fold excess of the acryl-bearing nucleotides at pH 7.5 was first performed following incubation at room temperature for 24 h at pH 9.5 for covalent protein modification. Covalent protein modification was controlled by ESI-MS. The MS spectra were recorded on a VelosPro IonTrap (Thermo Scientific) with an EC 50/3 Nucleodur C18 1.8 μm column (Macherey and Nagel) and a gradient of the mobile phase A (0.1% formic acid in water) to B (0.1% formic acid in acetonitrile).

In the next assay the target is KRasWT1-169 (Homo sapiens, UniProt P01116). Put plainly: HPLC-based approach for determination of affinities relative to GDP. The note with it: for KA: KA = KA(GDP) x KrelA, GDP from KA = 1/KD; for relative association constant KrelA: relative to GDP. On the procedure: The relative affinities of the nucleotide analogues were measured using an HPLC-based approach. 50 μM of […] was mixed with 50 μM of the acetamide derivatives and incubated either for 7 days at room temperature in the absence of EDTA, for 24 hr at 4 °C in the presence of 10 mM EDTA, or for 1 hr at room temperature in the presence of SOS in a buffer consisting of 20 mM HEPES (pH 7.5), 100 mM NaCl, 2 mM MgCl2, 1 mM TCEP and 5% glycerol. After incubation, the Ras proteins were washed five times with buffer (15 mL) using centrifugal filter devices to remove any unbound nucleotide, concentrated and analysed by isocratic HPLC runs. The resulting curves were analysed by integrating the corresponding peaks for GDP and the guanosine nucleotide analogues after distinct time points using the Agilent ChemStation Software (Table 1-source data 3, Table 1-source data 4). Based on the percentage distribution determined by the HPLC assay, the relative association constants (KrelA) for […] and bdaGDP could subsequently be calculated. In contrast, the superposition of the GDP signal prevented an exact determination of the relative association constant for […] values of 0.34 and 0.28 relative to GDP were determined for […] and bdaGDP, respectively. […] By rearranging the equilibrium reactions listed in (Equation 1a) and (Equation 1b), the following relationships are obtained for KGDP (Equation 2a) and […] Assuming that the concentration for aGDP used in the HPLC assay is 50 μM, the following GDP concentrations for […] (Equation 3a) and bdaGDP (Equation 3b) can be determined at time t=0 hr using the percentages determined in Table 1-source data 3:(3a) GDPtotal=%GDP/%[…]=37%/63%×50μM=29.4μM (3b) GDPtotal=%GDP/%bdaGDP=43%/57%×50μM=37.7μM The concentrations of the components listed in equation (Equation 2b) can be calculated as follows for […] (Equation 4a, Equation 4b, Equation 4c, Equation 4d) and bdaGDP (Equation 5a, Equation 5b, Equation 5c, Equation 5d) by considering the total GDP concentrations calculated previously:(4[…]]=47/100×29.4μM=13.8μM (4b) [Ras:GDP]=53/100×29.4μM=15.6μ[…]]=50μM-13.8μM=36.2μM (4d) [GDP]=29.4μM-15.6μM=13.8μM (5a) [Ras:bdaGDP]=39.5/100×37.7μM=14.9μM (5b) [Ras:GDP]=60.5/100×37.7μM=22.8μM (5c) [bdaGDP]=50μM-14.9μM=35.1μM (5d) [GDP]=37.7μM-22.8μM=14.9μM The relative association constant KrelA can be calculated by the following formula (Equation 6):(6) […] By inserting the concentrations of each component determined from (Equation 4a, Equation 4b, Equation 4c, Equation 4d) and (Equation 5a, Equation 5b, Equation 5c, Equation 5d) into (Equation 6), the relative association constants KrelA for […] (Equation 10a) and […]=1/0.136pM^-1=7.4pM (10b) KDbdaGDP=1/0.112pM^-1=8.9pM
KRasWT1-169, sequence (P01116 1-169): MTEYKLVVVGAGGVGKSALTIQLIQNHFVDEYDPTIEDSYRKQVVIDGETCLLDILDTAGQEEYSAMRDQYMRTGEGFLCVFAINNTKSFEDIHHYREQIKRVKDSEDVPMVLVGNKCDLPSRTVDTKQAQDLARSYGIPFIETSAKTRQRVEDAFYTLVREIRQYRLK

Where [2] appears, read: -EDTA, 7 days at room temperature.
[3] abbreviates: worked calculation KD = 1/KA, Equation 10a/10b.

In the assay on nucleotide-free KRas, `Nc1nc2c(ncn2[C@@H]2O[C@H](COP(=O)(O)OP(=O)(O)OP(=O)(O)O)[C@@H](O)[C@H]2O)c(=O)[nH]1` [GTP, reference compound] gave a kon of 5.23 µM^–1s^–1.
Consider `C=CC(=O)NCCCCNC(=O)O[C@H]1[C@@H](O)[C@H](n2cnc3c(=O)[nH]c(N)nc32)O[C@@H]1COP(=O)(O)OP(=O)(O)O` [acryl-bdaGDP], for which the “covalent labelling of KRasG13C1-169 (Cys-light)” value in assay [1] (pH 7.5, after 24 hr) is “slight labelling”; in assay [1] (pH 9.5, after 24 hr), around 100%.
As for `C=CC(=O)NCCCNC(=O)O[C@H]1[C@@H](O)[C@H](n2cnc3c(=O)[nH]c(N)nc32)O[C@@H]1COP(=O)(O)OP(=O)(O)O` [acryl-pdaGDP], the “covalent labelling of KRasG13C1-169 (Cys-light)” value is recorded as “slight labelling” in assay [1] (pH 7.5, after 24 hr) and around 100% in assay [1] (pH 9.5, after 24 hr).
For `C=CC(=O)NCCCCNC(=O)O[C@H]1[C@@H](O)[C@H](n2cnc3c(=O)[nH]c(N)nc32)O[C@@H]1COP(=O)(O)OP(=O)(O)O` [bdaGDP], the kon with nucleotide-free KRas came out at 3.12 µM^–1s^–1. Besides, the koff in the assay on nucleotide-free KRas is 3.0x10^–5 s^–1. For the same molecule, the Kd is 10 pM on KRasWT1-169 (+SOS, 1 hr at room temperature); 10 pM on KRasWT1-169 (setting [2]); 8.9 pM on KRasWT1-169 (setting [3]). This molecule also returned a KA at KRasWT1-169 of 0.112 pM⁻¹. In addition, at KRasWT1-169, the “relative association constant KrelA” value amounted to 0.28.
As to `C=CC(=O)NCCCNC(=O)O[C@H]1[C@@H](O)[C@H](n2cnc3c(=O)[nH]c(N)nc32)O[C@@H]1COP(=O)(O)OP(=O)(O)O` [pdaGDP], in the assay with nucleotide-free KRas, the kon is listed as 3.34 µM^–1s^–1 and the koff is on record as 2.9x10^–5 s^–1. Moreover, binding at KRasWT1-169 (+SOS, 1 hr at room temperature) was put at a Kd of 10.4 pM. Also, at KRasWT1-169 (setting [2]), the affinity, expressed as Kd, was 8 pM. Further, on KRasWT1-169, the KA stood at 0.136 pM⁻¹ and the “relative association constant KrelA” value was found to be 0.34. Moreover, the Kd at KRasWT1-169 (setting [3]) was 7.4 pM.

The values above are taken from publication PMC10042540, “Targeting oncogenic KRasG13C with nucleotide-based covalent inhibitors” (eLife, 2023).
